Experiment [1] addresses c-kit mutant D816V (Homo sapiens (Human), UniProt P10721, D816V/DEL694-753). Nature of the experiment: c-Kit mutant D816V biochemical assay (AlphaScreen kinase activity). The gist of the method: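 Recombinant His-tagged c-Kit D816V kinase domain (residues 551-934, insert 694-753 deleted, E. coli-expressed) phosphorylating 30 nM biotin-(E4Y)10 with 10 μM ATP, HEPES pH 7.2, Mg/Mn, 5% DMSO; 30 min, room temperature. Phosphorylation detected by AlphaScreen (streptavidin donor/PY30 acceptor beads); IC50 from 8-point 1:3 series.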

For experiment [2], the system named is BaF3-FL KIT D816V or BaF3-FL KIT V560G/D816V cell line. Put plainly: Cell-based assays of c-Kit mutant kinase activity (cell proliferation, ATPlite). Particulars: at least one of the c-kit cell assays of Example 7. An outline of the steps:
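BaF3 cells dependent on transfected full-length human KIT D816V or V560G/D816V (pCI-Neo, CMV promoter) were seeded at 1×10^4 cells/well and exposed to 8-point 1:3 dilutions from 10 μM top (0.2% DMSO) for three days at 37° C. ATPlite luminescence gave cell number; IC50 from concentration-response.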
(In ATP-based viability assays light output follows the ATP content of the culture.)

The values that follow come from US9771369B2, “Compounds and methods for kinase modulation, and indications therefor” (Plexxikon Inc., priority 2014, dated 2017).

Chain of c-kit mutant D816V (P10721 other isoform, or with tags, fused parts or gaps D816V/del 694-753): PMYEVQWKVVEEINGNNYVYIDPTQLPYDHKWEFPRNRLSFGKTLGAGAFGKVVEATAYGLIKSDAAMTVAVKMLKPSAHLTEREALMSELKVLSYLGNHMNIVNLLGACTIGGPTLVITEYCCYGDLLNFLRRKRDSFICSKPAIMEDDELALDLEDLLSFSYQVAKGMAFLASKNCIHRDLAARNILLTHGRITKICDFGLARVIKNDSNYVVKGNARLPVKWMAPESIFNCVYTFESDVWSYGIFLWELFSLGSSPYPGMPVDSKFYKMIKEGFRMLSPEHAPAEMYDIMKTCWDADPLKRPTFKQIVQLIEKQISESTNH

For orientation: IC50 means the concentration at which inhibition is half-maximal. High values mean weaker potency in that assay, low ones greater potency in that assay. On to `CNC(=O)c1ccc(-c2cc3c(N4CCC(C)(c5nc(C)c(-c6ccc(OC)c(C)c6)[nH]5)CC4)ncnc3[nH]2)cn1` [P-3218, 5-[4-[4-[5-(4-methoxy-3-methyl-phenyl)-4-methyl-1H-imidazol-2-yl]-4-methyl-1-piperidyl]-7H-pyrrolo[2,3-d]pyrimidin-6-yl]-N-methyl-pyridine-2-carboxamide], for which the IC50 is 0.0001 to 1 µM in experiment [1] and less than 10000 nM in experiment [2].

In the case of `COc1ccc(-c2[nH]c(C3(C)CCN(c4ncnc5[nH]c(-c6ccc(N7CCOCC7)nc6)cc45)CC3)nc2C)cc1C` [P-3219, 4-[5-[4-[4-[5-(4-methoxy-3-methyl-phenyl)-4-methyl-1H-imidazol-2-yl]-4-methyl-1-piperidyl]-7H-pyrrolo[2,3-d]pyrimidin-6-yl]-2-pyridyl]morpholine], the 50% inhibitory concentration (IC50) in experiment [1] is 0.0001 to 1 µM; in experiment [2] it was less than 10000 nM.

On to `CNC(=O)c1ccc(-c2cc3c(N4CCC(C)(c5nc(C)c(-c6ccc(OC)c(F)c6)[nH]5)CC4)ncnc3[nH]2)cn1` [P-3220, 5-[4-[4-[5-(3-fluoro-4-methoxy-phenyl)-4-methyl-1H-imidazol-2-yl]-4-methyl-1-piperidyl]-7H-pyrrolo[2,3-d]pyrimidin-6-yl]-N-methyl-pyridine-2-carboxamide], for which the IC50 in experiment [1] is 0.0001 to 1 µM; in experiment [2], less than 10000 nM.

Regarding `COc1cccc(-c2[nH]c(C3(C)CCN(c4ncnc5[nH]c(-c6ccc(OCC(=O)O)cc6)cc45)CC3)nc2C)c1` [P-3221, 2-[4-[4-[4-[5-(3-methoxyphenyl)-4-methyl-1H-imidazol-2-yl]-4-methyl-1-piperidyl]-7H-pyrrolo[2,3-d]pyrimidin-6-yl]phenoxy]acetic acid], the values for the IC50 in experiment [1] and in experiment [2] were 0.0001 to 1 µM and less than 10000 nM, respectively.

In the case of `CNC(=O)c1ccc(-c2cc3c(N4CCC(C)(c5nc(C)c(-c6cccc(OC)c6)[nH]5)CC4)ncnc3[nH]2)cn1` [P-3222, 5-[4-[4-[5-(3-methoxyphenyl)-4-methyl-1H-imidazol-2-yl]-4-methyl-1-piperidyl]-7H-pyrrolo[2,3-d]pyrimidin-6-yl]-N-methyl-pyridine-2-carboxamide], the results for the IC50 in experiment [1] and in experiment [2] were 0.0001 to 1 µM and less than 10000 nM, respectively.

Turning to `COc1cccc(-c2[nH]c(C3(C)CCN(c4ncnc5[nH]c(-c6ccc(N7CCOCC7)nc6)cc45)CC3)nc2C)c1` [P-3223, 4-[5-[4-[4-[5-(3-methoxyphenyl)-4-methyl-1H-imidazol-2-yl]-4-methyl-1-piperidyl]-7H-pyrrolo[2,3-d]pyrimidin-6-yl]-2-pyridyl]morpholine], the IC50 in experiment [1] was 0.0001 to 1 µM; in experiment [2] it was less than 10000 nM.

As to `CCOc1ccc(-c2[nH]c(C3(C)CCN(c4ncnc5[nH]c(-c6ccc(OCC(=O)O)cc6)cc45)CC3)nc2C)cc1` [P-3224, 2-[4-[4-[4-[5-(4-ethoxyphenyl)-4-methyl-1H-imidazol-2-yl]-4-methyl-1-piperidyl]-7H-pyrrolo[2,3-d]pyrimidin-6-yl]phenoxy]acetic acid], the half-maximal inhibitory concentration (IC50) in experiment [1] is 0.0001 to 1 µM; in experiment [2], less than 10000 nM.

Regarding `COc1cccc(-c2[nH]c(C3(C)CCN(c4ncnc5[nH]c(-c6ccc(C(N)=O)cc6)cc45)CC3)nc2C)c1` [P-3225, 4-[4-[4-[5-(3-methoxyphenyl)-4-methyl-1H-imidazol-2-yl]-4-methyl-1-piperidyl]-7H-pyrrolo[2,3-d]pyrimidin-6-yl]benzamide], the IC50 in experiment [1] is 0.0001 to 1 µM; in experiment [2], less than 10000 nM.

For the molecule `CCOc1ccc(-c2[nH]c(C3(C)CCN(c4ncnc5[nH]c(-c6ccc(C(=O)NC)nc6)cc45)CC3)nc2C)cc1` [P-3226, 5-[4-[4-[5-(4-ethoxyphenyl)-4-methyl-1H-imidazol-2-yl]-4-methyl-1-piperidyl]-7H-pyrrolo[2,3-d]pyrimidin-6-yl]-N-methyl-pyridine-2-carboxamide], the IC50 in experiment [1] is 0.0001 to 1 µM; in experiment [2], less than 10000 nM.

Take `CCOc1ccc(-c2[nH]c(C3(C)CCN(c4ncnc5[nH]c(-c6ccc(N7CCOCC7)nc6)cc45)CC3)nc2C)cc1` [P-3227, 4-[5-[4-[4-[5-(4-ethoxyphenyl)-4-methyl-1H-imidazol-2-yl]-4-methyl-1-piperidyl]-7H-pyrrolo[2,3-d]pyrimidin-6-yl]-2-pyridyl]morpholine]: the IC50 in experiment [1] was 0.0001 to 1 µM; in experiment [2], less than 10000 nM.

As to `COc1ccc(-c2[nH]c(C3(C)CCN(c4ncnc5[nH]c(-c6ccc(NS(C)(=O)=O)cc6)cc45)CC3)nc2C)cc1C` [P-3228, N-[4-[4-[4-[5-(4-methoxy-3-methyl-phenyl)-4-methyl-1H-imidazol-2-yl]-4-methyl-1-piperidyl]-7H-pyrrolo[2,3-d]pyrimidin-6-yl]phenyl]methanesulfonamide], the values for the half-inhibitory concentration (IC50) in experiment [1] and in experiment [2] were 0.0001 to 1 µM and less than 10000 nM, respectively.

Take `CCOc1ccc(-c2[nH]c(C3(C)CCN(c4ncnc5[nH]c(-c6ccc(C(N)=O)cc6)cc45)CC3)nc2C)cc1` [P-3229, 4-[4-[4-[5-(4-ethoxyphenyl)-4-methyl-1H-imidazol-2-yl]-4-methyl-1-piperidyl]-7H-pyrrolo[2,3-d]pyrimidin-6-yl]benzamide]: the IC50 in experiment [1] is 0.0001 to 1 µM; in experiment [2], less than 10000 nM.

As to `CCOc1ccc(-c2[nH]c(C3(C)CCN(c4ncnc5[nH]c(-c6ccc(NS(C)(=O)=O)cc6)cc45)CC3)nc2C)cc1` [P-3230, N-[4-[4-[4-[5-(4-ethoxyphenyl)-4-methyl-1H-imidazol-2-yl]-4-methyl-1-piperidyl]-7H-pyrrolo[2,3-d]pyrimidin-6-yl]phenyl]methanesulfonamide], the IC50 was 0.0001 to 1 µM in experiment [1] and less than 10000 nM in experiment [2].

Regarding `Cc1nc(C2(C)CCN(c3ncnc4[nH]c(-c5ccc(C(N)=O)cc5)cc34)CC2)[nH]c1-c1cccc(OC(F)F)c1` [P-3231, 4-[4-[4-[5-[3-(difluoromethoxy)phenyl]-4-methyl-1H-imidazol-2-yl]-4-methyl-1-piperidyl]-7H-pyrrolo[2,3-d]pyrimidin-6-yl]benzamide], the IC50 was 0.0001 to 1 µM in experiment [1] and less than 10000 nM in experiment [2].

`Cc1nc(C2(C)CCN(c3ncnc4[nH]c(-c5ccc(NS(C)(=O)=O)cc5)cc34)CC2)[nH]c1-c1cccc(OC(F)F)c1` [P-3232, N-[4-[4-[4-[5-[3-(difluoromethoxy)phenyl]-4-methyl-1H-imidazol-2-yl]-4-methyl-1-piperidyl]-7H-pyrrolo[2,3-d]pyrimidin-6-yl]phenyl]methanesulfonamide]: the half-inhibitory concentration (IC50) was 0.0001 to 1 µM in experiment [1] and less than 10000 nM in experiment [2].

For `Cc1nc(C2(C)CCN(c3ncnc4[nH]c(-c5ccc(OCC(=O)O)cc5)cc34)CC2)[nH]c1-c1cccc(OC(F)F)c1` [P-3233, 2-[4-[4-[4-[5-[3-(difluoromethoxy)phenyl]-4-methyl-1H-imidazol-2-yl]-4-methyl-1-piperidyl]-7H-pyrrolo[2,3-d]pyrimidin-6-yl]phenoxy]acetic acid], the results for the concentration for half-maximal inhibition (IC50) in experiment [1] and in experiment [2] were 0.0001 to 1 µM and less than 10000 nM, respectively.

As for `COc1cccc(-c2[nH]c(C3(C)CCN(c4ncnc5[nH]c(-c6ccc(NS(C)(=O)=O)cc6)cc45)CC3)nc2C)c1` [P-3234, N-[4-[4-[4-[5-(3-methoxyphenyl)-4-methyl-1H-imidazol-2-yl]-4-methyl-1-piperidyl]-7H-pyrrolo[2,3-d]pyrimidin-6-yl]phenyl]methanesulfonamide], the IC50 was 0.0001 to 1 µM in experiment [1] and less than 10000 nM in experiment [2].

`CNC(=O)c1ccc(-c2cc3c(N4CCC(C)(c5nc(C)c(-c6ccc(C(F)F)cc6)[nH]5)CC4)ncnc3[nH]2)cn1` [P-3235, 5-[4-[4-[5-[4-(difluoromethyl)phenyl]-4-methyl-1H-imidazol-2-yl]-4-methyl-1-piperidyl]-7H-pyrrolo[2,3-d]pyrimidin-6-yl]-N-methyl-pyridine-2-carboxamide]: the IC50 in experiment [1] was 0.0001 to 1 µM; in experiment [2] it was less than 10000 nM.

Take `CNC(=O)c1ccc(-c2cc3c(N4CCC(C)(c5nc(C)c(-c6cccc(OC(F)F)c6)[nH]5)CC4)ncnc3[nH]2)cn1` [P-3236, 5-[4-[4-[5-[3-(difluoromethoxy)phenyl]-4-methyl-1H-imidazol-2-yl]-4-methyl-1-piperidyl]-7H-pyrrolo[2,3-d]pyrimidin-6-yl]-N-methyl-pyridine-2-carb oxamide]: the figures for the IC50 in experiment [1] and in experiment [2] were 0.0001 to 1 µM and less than 10000 nM, respectively.

Turning to `Cc1nc(C2(C)CCN(c3ncnc4[nH]c(-c5ccc(N6CCOCC6)nc5)cc34)CC2)[nH]c1-c1ccc(C(F)F)cc1` [P-3237, 4-[5-[4-[4-[5-[4-(difluoromethyl)phenyl]-4-methyl-1H-imidazol-2-yl]-4-methyl-1-piperidyl]-7H-pyrrolo[2,3-d]pyrimidin-6-yl]-2-pyridyl]morpholine], the IC50 is 0.0001 to 1 µM in experiment [1] and less than 10000 nM in experiment [2].

`Cc1nc(C2(C)CCN(c3ncnc4[nH]c(-c5ccc(N6CCOCC6)nc5)cc34)CC2)[nH]c1-c1cccc(OC(F)F)c1` [P-3238, 4-[5-[4-[4-[5-[3-(difluoromethoxy)phenyl]-4-methyl-1H-imidazol-2-yl]-4-methyl-1-piperidyl]-7H-pyrrolo[2,3-d]pyrimidin-6-yl]-2-pyridyl]morpholine]: the IC50 was 0.0001 to 1 µM in experiment [1] and less than 10000 nM in experiment [2].

Turning to `Cc1nc(C2(C)CCN(c3ncnc4[nH]c(-c5ccc(C(N)=O)cc5)cc34)CC2)[nH]c1-c1ccc(C(F)F)cc1` [P-3239, 4-[4-[4-[5-[4-(difluoromethyl)phenyl]-4-methyl-1H-imidazol-2-yl]-4-methyl-1-piperidyl]-7H-pyrrolo[2,3-d]pyrimidin-6-yl]benzamide], the IC50 in experiment [1] was 0.0001 to 1 µM; in experiment [2], less than 10000 nM.
